Laboratory results taken from a melting point compilation (Tetko et al.; mined from patent text by program, amines drawn as free bases though some values may be those of a salt).

melting point [°C]	SMILES
184	COC(=O)c1cc2cc(C(=O)c3cccc(CC#N)c3)sc2s1
204 to 205	N#Cc1sc2cc([N+](=O)[O-])ccc2c1Cl
193 to 195	CC(C)c1ccccc1Nc1nc(N)nc2c1-c1ccccc1C2
127 to 129	Cc1nc(C(C)(O)c2ccsc2)sc1CCO (stereo unspecified)
159	Cc1ccc(NC(=O)c2cc(Cl)cc(C)n2)nc1
159 to 162	CCOC(=O)c1cn(-c2nnc(C)s2)c2nc(Cl)c(F)cc2c1=O
141 to 142	CN(C)N(C)C(=O)NC1c2ccccc2Oc2ccccc21
53	CCOC(=O)CCCCSc1nnc(S)s1
98 to 100	Fc1ccc([C@@H]2CCN(Cc3ccccc3)C[C@H]2COc2ccc3c(c2)OCO3)cc1
248 to 251	COc1c(F)c(F)cc2c(O)c(C(=O)NCc3ccc(Cl)cc3)cnc12
> 300	Cn1ncc(C(=O)N2CC3(COC3)C2)c1C(=O)Nc1ccn2nc(N3CCOCC3)nc2c1
203 to 205	CCCCn1c(=O)c2nn(S(=O)(=O)c3cccc4cccnc34)cc2n(CCCC)c1=O
153	CC1(C)CCC(C(=O)N2CCC[C@H]2C(=O)O)C1S (stereo partly specified)
44	CCCCCCCCCCCCCCCCC(C(=O)OC(C)(C)C)C(=O)c1ccc(C(=O)OC(C)C)c(Cl)c1 (stereo unspecified)
156 to 157	Cn1cc(CC(=O)O)c(OCc2ccc(OCc3csc(-c4ccccc4)n3)nc2)n1
115 to 116	COC(=O)c1[nH]c2c(C)ccc(C)c2c1Cl
> 300	NCCOCC(P(=O)(O)O)P(=O)(O)O
100 to 102	CCCCNC(=O)NS(=O)(=O)c1ccc(N2CCC(NC[C@H](O)c3ccc(O)c(NS(C)(=O)=O)c3)CC2)cc1
177 to 179	COC(=O)C1=CC(C(=O)OC)NC(=O)N1 (stereo unspecified)
166 to 167	CCCN(C=Cc1ccc([N+](=O)[O-])c2[nH]ncc12)CCC
200 to 202	O=C(O)c1cccc2c1CCc1cc(F)ccc1S2
185 to 187	CCC1(CC)CN(c2ncc(C(=O)N(C)c3cccc(C(F)(F)F)c3)c(N)n2)C(=O)N1
140 to 142	CCCc1nn(C)c2c(=O)n(CCOc3cccc(OC(C)(C)C(=O)O)c3)c(C)nc12
124 to 126	CCOC(=O)c1c(C(C)C)nc2c(c1-c1ccc(F)cc1)CCCC2(C)C

melting point [°C]	SMILES
111 to 113	S=C=Nc1ccc(Cl)c(Cl)c1
167 to 169	O=C1CCN(Cc2ccccc2)CC1C1c2ccccc2C=Cc2ccccc21 (stereo unspecified)
75	COC(=O)CCCc1cc2nc(Cl)ccc2n1S(=O)(=O)c1ccc(C(C)C)cc1
189	N#CC1(c2ccc(F)cc2)C=CC(N2CCN(c3cccnn3)CC2)CC1 (stereo unspecified)
154 to 155	CC(=O)c1cc(Cl)c2c(c1Cl)C(C)(C)CCS2(=O)=O
157 to 159	O=C(Nc1ccc(CCN2CCCCC2)cc1)C1=Cc2cc(-c3ccccc3)ccc2CC1
244 to 245	CC(C)(CC(O)(C(=O)O)C(F)(F)F)c1ccc(C(N)=O)cc1 (stereo unspecified)
47 to 49	CCOC(=O)/C=C(C)/C=C/C=C(C)/C=C/c1c(C)cc(OC(F)(F)F)c(C)c1C
130 to 132	O=[N+]([O-])c1ccc(Cl)cc1-c1nc2ccccc2o1
266 to 269	NC(=O)c1cc([N+](=O)[O-])ccc1SSc1ccc([N+](=O)[O-])cc1C(N)=O
135	COC(=O)N(C)CCCC(=O)OC[C@@H]1CC(c2ccc(-c3ccc(N4C[C@H](Cn5ccnn5)OC4=O)cc3F)cn2)=NO1
74	Nc1ccc(Cl)cc1C=Nc1ccccc1
93 to 95	COC(=O)c1cncn1C1c2ccccc2C(=O)CC1(C)C (stereo unspecified)
178 to 179	Cc1cccc(NC(N)=S)c1N1CCOCC1
116 to 117	COC(=O)c1ccccc1NC(=O)Cc1ccccc1OC
205 to 207	O=C(Cc1c(-c2ccccc2)c2cc(CN3CCOCC3)c(Cl)cc2oc1=O)Nc1ccc(Cl)cc1C(F)(F)F
153	CON=C(C)c1ccc(-c2ccccc2NC(=O)c2c(C)nn(C)c2F)cc1
210 to 211	O=C(O)c1cccc(-c2ccc3c(c2)N(c2cc(Cl)cc(Cl)c2)CC3)c1
85	Cc1cc(-n2ccnc2)c2cccc(OCc3c(Cl)ccc(S(=O)(=O)N4CCC[C@H]4C(=O)NCCCCCN(C)C)c3Cl)c2n1
233 to 234	O=C(O)c1cccc(-c2nc(-c3ccccc3F)no2)c1
73 to 75	CSC1NC(=O)N(C(C)C)C(=O)N1C (stereo unspecified)
182 to 184	CCOC(=O)c1oc2ccc(Cc3ccc(O)cc3)c(O)c2c1C
249 to 251	COC1OCOc2cc3c4c(cccc4c21)C(=O)N(O)C3=O (stereo unspecified)
178 to 179	CCCCc1nc(Cl)c(C=O)n1Cc1ccc(-c2ccccc2-c2n[nH]c(=O)o2)cc1

melting point [°C]	SMILES
60 to 68	COC(=O)c1ccc(OCC(C)NCC(O)c2ccc(O)c(CO)c2)cc1 (stereo unspecified)
284 to 285	COc1ccc(-c2cnc3[nH]cc(C#N)c3n2)cc1OC
110 to 113	O=CNc1ccc(Br)c(Cl)c1
93 to 95	COc1cc(C(C)=O)ccc1SCCCN1CCC(c2noc3cc(F)ccc23)CC1
80 to 84	O=C(C=Cc1ccc(F)cc1)c1c(F)c(F)c(F)c(F)c1F
101 to 108	CCCCCCCCCCc1sc(NC(=O)Nc2c(C(C)C)cccc2C(C)C)nc1C
164 to 166	COc1cc(OC)nc(NC(=O)NS(=O)(=O)c2ccccc2C2CCOC2=O)n1 (stereo unspecified)
133 to 134	Oc1cccc(CCCCn2ccnc2)c1
194 to 195	CCCCn1cc2c(n1)c(N)nc1ccccc12
186 to 188	CCCc1nc2c(N)nc3ccccc3c2n1CCCCNS(C)(=O)=O
52 to 56	CC(C)N(CCC(c1ccccc1)c1cc(Br)ccc1OCc1ccccc1)C(C)C (stereo unspecified)
119 to 121	O=C(O)C(=O)CC(=O)c1cccn1CCCCc1ccccc1
80 to 81	CCOC(=O)CCc1cc(-c2ccc(Cl)cc2)n(-c2ccc(OC)cc2)n1
218 to 220	O=C(NCC1CC1)Nc1ccc(N2CCOCC2)cc1C(=O)NCC1CCN(C(c2ccccc2)c2ccccc2)CC1
140 to 142	Cc1ccc(Cl)cc1N1C(=O)CN=C1SCc1ccccc1
168 to 172	COc1ccc(NC(=O)c2coc3c2C(=O)CCCC3)c(F)c1
113 to 115	Cc1cc(=O)c2ccc(OCCCCl)cc2o1
> 200	Cc1ncc2cc(C#N)c(O)nc2n1
127	COC(=O)CCCc1cc2nc(Cl)ccc2n1S(=O)(=O)c1ccccc1C(F)(F)F
60 to 61	CC(=O)OC(C)Cc1ccc(-c2ccc(C(C)=O)cc2)cc1 (stereo unspecified)
135 to 137	CC(C)(C)OC(=O)n1ccc2cc([N+](=O)[O-])ccc21
190 to 191	O=C(N[C@H](Cc1ccccc1)C(=O)O)OCc1ccc2nc(-c3ccccc3)ccc2c1
209 to 211	O=C(NCCF)c1ccc(CCN2CC=C(c3c[nH]c(-c4ccc(F)cc4)c3-c3ccncc3)CC2)cc1
154 to 156	CC(=O)Nc1ccccc1S(N)(=O)=O

melting point [°C]	SMILES
202 to 204	CCc1[nH]c(=S)n(Nc2cccc(C)c2)c1-c1ccccc1
58 to 64	CCC1(C)NC(=O)C(C)(CC)N1 (stereo unspecified)
193 to 194	Cn1cc(C(=O)NCc2ccc(Cl)cc2)c(=O)c2sc(CO)c(COCC[Si](C)(C)C)c21
210 to 212	Cc1cc([N+](=O)[O-])cc2c(Cl)c(C#N)cnc12
110 to 111	Cc1cc(OCc2nc3ccccc3s2)ccc1N
102 to 110	CCN(CC)CCCOc1ccc(C(=O)c2c(-c3ccc(OC)cc3)oc3ccccc23)cc1
173 to 174	CN(C)Cn1nc(-c2ccncc2)n(-c2ccccc2)c1=S
297 to 299	Cc1nc(-c2cc(C(=O)O)c(=O)[nH]c2C)cs1
189 to 190	Cn1c(=Nc2ccccc2)sc2ncccc2c1=O
155 to 156	O=C(Nc1ccccc1F)C1C(=O)Sc2ccccc21 (stereo unspecified)
123 to 125	C=CCn1cc(C2CCN(CCOc3ccccc3C(=O)O)CC2)c2ccccc21
26 to 28	CCOC(=O)/C=C/c1cccc(Br)c1
113 to 130	O=c1c2c(N3CCNCC3)cc(Cl)cc2n(Cc2ccccc2)c(=O)n1Cc1ccccc1O
65 to 73	Cc1[nH]c2ccccc2c1CCN1CCN(C(c2ccc(F)cc2)c2ccc(F)cc2)CC1
160 to 162	O=S(=O)(c1cccc(C(F)(F)F)c1)c1cc(Br)nc(N2CCNCC2)c1
110 to 113	CCOC(=O)c1cn(C2COC2)c2c(F)c(F)c(F)c(F)c2c1=O
168 to 178	COc1ccc(-c2csc(N)n2)cc1OC1CC2CCC1C2 (stereo unspecified)
85 to 87	COCCC1(C(=O)N[C@@H](Cc2ccc(NC(=O)c3c(Cl)cccc3Cl)cc2)C(=O)OC)CCCC1
95 to 96	CCOP(=O)(/C=C/c1cn(-c2ccccc2)nc1OCc1ccc(OCc2nc(N3CCCCC3)sc2C)c(OC)c1)OCC
62 to 63	COc1cc2c(cc1O)C(O)CN(Cc1cc(OC)c(OC)c(OC)c1)C2 (stereo unspecified)
197	Cc1onc(O)c1-c1ccccc1[N+](=O)[O-]
158 to 160	O=C1c2ccccc2C(=O)N1CC#Cc1ccc(Cl)cc1C(O)c1ccccc1F (stereo unspecified)

SMILES	melting point [°C]
O=C(CS(=O)(=O)Cc1ccccc1)CS(=O)(=O)C(c1ccc(Cl)cc1)c1ccc(Cl)cc1	72 to 90
CNC(=O)Oc1cc(C)c(NS(C)(=O)=O)c(C)c1	178 to 185
O=C1OCC(c2ccccc2)C1CS (stereo unspecified)	41 to 42
COc1ccc(C=Cc2cc(OC)c3c(c2)OCO3)cc1O	145 to 150
OCc1nnc2n1-c1ccccc1C(c1ccccc1Cl)=NC2	196 to 197
COC(=O)c1cc(I)cn1CCF	49 to 50.5
CN(C)CC1CN(C)C(=S)c2cccnc2O1 (stereo unspecified)	178 to 179
